Test results from patent publication US20070259907A1, “ARYL AND ARYLALKYLENYL SUBSTITUTED THIAZOLOQUINOLINES AND THIAZOLONAPHTHYRIDINES” (priority 2004, published 2007).

Row | melting point | SMILES
1 | 206 to 209 °C | CCCc1nc2c(N)nc3cc(-c4ccccc4NC(C)=O)ccc3c2s1 [Example 46, N-[2-(4-Amino-2-propylthiazolo[4,5-c]quinolin-7-yl)phenyl]acetamide]
2 | 252 to 255 °C | CCCc1nc2c(N)nc3ccc(-c4cccc(S(C)(=O)=O)c4)cc3c2s1 [Example 134, 8-[3-(Methylsulfonyl)phenyl]-2-propylthiazolo[4,5-c]quinolin-4-amine]
3 | 169 to 172 °C | CCCc1nc2c(N)nc3cc(-c4cccc(C(=O)N(CC)CC)c4)ccc3c2s1 [Example 42, 3-(4-Amino-2-propylthiazolo[4,5-c]quinolin-7-yl)-N,N-diethylbenzamide]
4 | 242 to 245 °C | CCCc1nc2c(N)nc3cc(-c4cccc(S(C)(=O)=O)c4)ccc3c2s1 [Example 48, 7-[3-(Methylsulfonyl)phenyl]-2-propylthiazolo[4,5-c]quinolin-4-amine]
5 | 212 to 214 °C | CCCc1nc2c(N)nc3ccc(-c4ccc(CO)cc4)cc3c2s1 [Example 141, [4-(4-Amino-2-propylthiazolo[4,5-c]quinolin-8-yl)phenyl]methanol]
6 | 228 to 231 °C | CCCc1nc2c(N)nc3cc(-c4cccc(NS(C)(=O)=O)c4)ccc3c2s1 [Example 2, N-[3-(4-Amino-2-propylthiazolo[4,5-c]quinolin-7-yl)phenyl]methanesulfonamide]
7 | 168 to 171 °C | CCCc1nc2c(N)nc3cc(-c4cccc(CN)c4)ccc3c2s1 [Example 50, 7-(3-Aminomethylphenyl)-2-propylthiazolo[4,5-c]quinolin-4-amine]
8 | 274 to 276 °C | CCCc1nc2c(N)nc3cc(-c4ccccc4C(N)=O)ccc3c2s1 [Example 47, 2-(4-Amino-2-propylthiazolo[4,5-c]quinolin-7-yl)benzamide]
9 | 242 to 245 °C | CCCc1nc2c(N)nc3ccc(-c4cccc(NC(C)=O)c4)cc3c2s1 [Example 135, N-[3-(4-Amino-2-propylthiazolo[4,5-c]quinolin-8-yl)phenyl]acetamide]
10 | 176 to 177 °C | CCCc1nc2c(N)nc3ccc(-c4cccc(CO)c4)cc3c2s1 [Example 140, [3-(4-Amino-2-propylthiazolo[4,5-c]quinolin-8-yl)phenyl]methanol]
11 | 177 to 180 °C | CCCc1nc2c(N)nc3cc(-c4cccc(C(=O)N5CCCC5)c4)ccc3c2s1 [Example 43, 2-Propyl-7-[3-(pyrrolidin-1-ylcarbonyl)phenyl]thiazolo[4,5-c]quinolin-4-amine]
12 | 194 to 196 °C | CCCc1nc2c(N)nc3ccc(-c4ccccc4CO)cc3c2s1 [Example 139, [2-(4-Amino-2-propylthiazolo[4,5-c]quinolin-8-yl)phenyl]methanol]
13 | 173 to 176 °C | CCCc1nc2c(N)nc3cc(-c4cccc(NC(C)=O)c4)ccc3c2s1 [Example 49, N-[3-(4-Amino-2-propylthiazolo[4,5-c]quinolin-7-yl)phenyl]acetamide]
14 | 190 to 193 °C | CCCc1nc2c(N)nc3cc(-c4cccc(C(=O)N5CCOCC5)c4)ccc3c2s1 [Example 4, 7-[3-(Morpholin-4-ylcarbonyl)phenyl]-2-propylthiazolo[4,5-c]quinolin-4-amine]
15 | 225 to 226 °C | CCCc1nc2c(N)nc3ccc(-c4ccc(CN)cc4)cc3c2s1 [Example 143, 8-[4-(Aminomethyl)phenyl]-2-propylthiazolo[4,5-c]quinolin-4-amine]
16 | 244 to 246 °C | CCCc1nc2c(N)nc3ccc(-c4cccc(NS(C)(=O)=O)c4)cc3c2s1 [Example 138, N-[3-(4-Amino-2-propylthiazolo[4,5-c]quinolin-8-yl)phenyl]methanesulfonamide]
17 | 181 to 184 °C | CCCc1nc2c(N)nc3cc(-c4ccc(F)cc4CN)ccc3c2s1 [Example 51, 7-[2-(Aminomethyl)-4-fluorophenyl)-2-propylthiazolo[4,5-c]quinolin-4-amine]
18 | 198 to 201 °C | CCCc1nc2c(N)nc3ccc(-c4ccc(F)cc4CN)cc3c2s1 [Example 136, 8-[2-(Aminomethyl)-4-fluorophenyl]-2-propylthiazolo[4,5-c]quinolin-4-amine]
19 | 186 to 188 °C | CCCc1nc2c(N)nc3cc(-c4cccc(CO)c4)ccc3c2s1 [Example 1, [3-(4-Amino-2-propylthiazolo[4,5-c]quinolin-7-yl)phenyl]methanol]
20 | 189 to 191 °C | CCCc1nc2c(N)nc3ccc(-c4cccc(CN)c4)cc3c2s1 [Example 142, 8-[3-(Aminomethyl)phenyl]-2-propylthiazolo[4,5-c]quinolin-4-amine]
21 | 216 to 219 °C | CCCc1nc2c(N)nc3cc(-c4ccccc4CO)ccc3c2s1 [Example 3, [2-(4-Amino-2-propylthiazolo[4,5-c]quinolin-7-yl)phenyl]methanol]
22 | 252 to 255 °C | CCCc1nc2c(N)nc3cc(-c4ccc(NC(C)=O)cc4)ccc3c2s1 [Example 44, N-[4-(4-Amino-2-propylthiazolo[4,5-c]quinolin-7-yl)phenyl]acetamide]
23 | 251 to 254 °C | CCCc1nc2c(N)nc3cc(-c4cccc(C(=O)NC5CC5)c4)ccc3c2s1 [Example 45, 3-(4-Amino-2-propylthiazolo[4,5-c]quinolin-7-yl)-N-cyclopropylbenzamide]
24 | 251 to 254 °C | CCCc1nc2c(N)nc3ccc(-c4ccc(NC(C)=O)cc4)cc3c2s1 [Example 137, N-[4-(4-Amino-2-propylthiazolo[4,5-c]quinolin-8-yl)phenyl]acetamide]
